Data as given in paper PMC6050537, “Inhibition of low-density lipoprotein receptor degradation with a cyclic peptide that disrupts the homodimerization of IDOL E3 ubiquitin ligase” (Chemical Science, 2018).
Residues, ends and D or L forms follow the SMILES beside them.

Key:
[1] = tested on: IDOL homodimerization (434-IDOL fusion) in IDOL RTHS; assay: IDOL bacterial reverse two-hybrid system (RTHS) drop-spotting; assay type: cell-based, E. coli; conditions: SICLOPPS-encoded peptide, IPTG 25 μM plus arabinose
Description: We used a previously reported genetically encoded high-throughput screening platform that combines a bacterial reverse two-hybrid system (RTHS)[21],[23]–[25] with a plasmid-encoded library of 3.2 million cyclic hexapeptides using split intein circular ligation of peptides and proteins (SICLOPPS).[26],[27] We began by constructing a bacterial RTHS for IDOL homodimerization. IDOL is expressed as an N-terminal fusion with the 434 bacteriophage repressor, with the 38 amino acid disordered region of the 434 repressor acting as linker. IDOL homodimerization is expected to bring together two 434 proteins to form a functional repressor that binds to the operator sites engineered onto the E. coli chromosome, and prevent the expression of 3 genes downstream that are required for growth and survival on selective media (Fig. 1a). We verified the formation of a functional repressor and suppression of growth on selective media upon IDOL homodimerization by drop-spotting (Fig. 1b), and by ONPG assay (ESI Fig. 1 ^†) as previously detailed.[21] A SICLOPPS CXXXXX library (where X = any canonical amino acid) was prepared as previously detailed[28] and transformed into the IDOL RTHS prior to plating on selective media. After incubation of the selection plates for 48 h, 480 surviving colonies were picked and individually assessed for arabinose-dependent survival on selective media by drop-spotting. […]

[2] = tested on: T1, RING domain of IDOL; assay: 1H 15N HSQC NMR binding to RING domain
T1 construct: IDOL RING domain (G356-I445) was expressed as TEV cleavable N-terminal HN6-Lysine-Tag; HN6-Lysine-Tag (TEV-cleavable) (N); made in house; host or cells: E. coli (pET vector)
Description: (§1) The lead candidates, cyclo-CTIFLL and cyclo-CFFLYT, were next analyzed for binding to the RING domain of IDOL by ^1H ^15N HSQC NMR. We also assessed the binding of each peptide to the FERM domain of IDOL as a negative control. […] It should be noted that the 3 residues affected by cyclo-CFFLYT (named RINGPep1) form part of the PPI interface in the crystal structure of the homodimerized RING domains of IDOL (Fig. 1c and ESI Fig. 6 ^†).[15] Furthermore, mutation of V431R coupled with a L433R mutation is known to result in a dimer deficient IDOL.[15]
(§2) ^15N-labeled RING and FERM domains were prepared for NMR experiments by buffer exchange using Amicon Ultra-4 Centrifugal Filter Units with 3 kDa molecular weight cut-off membranes. Buffer conditions for the NMR studies were 50 mM TRIS-d11 pH 7.5, 200 mM NaCl, 3 mM TCEP, 10% (v/v) D2O for the RING domain and 25 mM TRIS-d11, 25 mM NaPi, pH 7.5, 300 mM NaCl, 3 mM TCEP, 10% (v/v) D2O for the FERM domain. The protein concentrations were 80 μM and 70 μM, for the RING and FERM domain respectively. Two-dimensional NMR SOFAST-HMQC titration experiments were carried out on a Bruker 600 MHz spectrometer equipped with a cryoprobe. […]

[3] = target: T2, 6× His-tagged, full-length IDOL (Homo sapiens, UniProt Q8WY64); assay: Surface plasmon resonance (SPR) affinity for IDOL; assay type: binding; conditions: SPR, immobilized full-length His-IDOL; saturation at highest concentrations not observed; read-out: Kd
T2 construct: Full length IDOL (1–445) was cloned with a TEV cleavable N-terminal 6xHis tag; made in house; host or cells: Spodoptera frugiperda Sf21 (baculovirus, pFastbac1)
T2 sequence (Q8WY64 1-445): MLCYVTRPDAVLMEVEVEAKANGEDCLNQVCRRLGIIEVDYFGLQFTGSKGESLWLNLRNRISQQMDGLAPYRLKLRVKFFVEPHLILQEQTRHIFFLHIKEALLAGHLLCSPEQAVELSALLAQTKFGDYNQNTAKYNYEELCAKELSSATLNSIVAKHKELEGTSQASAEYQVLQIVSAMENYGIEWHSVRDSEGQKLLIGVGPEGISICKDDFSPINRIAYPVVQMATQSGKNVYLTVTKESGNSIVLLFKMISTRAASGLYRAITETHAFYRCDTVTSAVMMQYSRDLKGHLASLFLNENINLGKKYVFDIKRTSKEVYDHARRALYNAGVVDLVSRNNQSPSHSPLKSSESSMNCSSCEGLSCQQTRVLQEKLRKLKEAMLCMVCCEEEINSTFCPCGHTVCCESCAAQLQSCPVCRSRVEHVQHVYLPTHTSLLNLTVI
Description: We initially assessed the affinity of the 6 selected cyclic peptides for IDOL by surface plasmon resonance (SPR). Although saturation at the highest concentrations was not observed, due to hydrophobic effects, Kd values could be determined for five peptides (Table 1). […] The hit rate for our IDOL screen is in line with that for previous SICLOPPS screens.[21],[25] It should be noted that although cyclo-CTIFLL and cyclo-CTLILF contain the same amino acids, changing the order in which these are arranged results in activity loss.
All measurements were performed on a Biacore S200 (GE healthcare) using running buffer 10 mM HEPES, 300 mM NaCl, 1 mM TCEP, 0.05% Tween 20 and 4% DMSO at pH 8.0. In brief, 6× His-tagged, full-length IDOL was immobilized on a NTA-chip (Xantec), to a final level of ∼6000 RU. The chip was pre-loaded with Ni^2+ to facilitate efficient capture of His-tagged protein onto the chip. The activity of the immobilized protein was confirmed using a reference compound.
Supplementary Figure 2. […] Saturation of binding was not observed due to the hydrophobic nature of the peptides
(1 picture or pasted object on this page, not shown here)

[4] = tested on: T3, FERM domain of IDOL; assay: 1H 15N HSQC NMR binding to FERM domain (negative control)
T3 construct: made in house; host or cells: E. coli BL21
Description: as §1, §2

CC(C)C[C@@H]1NC(=O)[C@H](Cc2ccccc2)NC(=O)[C@H](Cc2ccccc2)NC(=O)[C@H](CS)NC(=O)[C@H]([C@@H](C)O)NC(=O)[C@H](Cc2ccc(O)cc2)NC1=O [RINGPep1, cyclo-CFFLYT] (HELM PEPTIDE1{C.F.F.L.Y.T}$PEPTIDE1,PEPTIDE1,1:R1-6:R2$$$V2.0)
growth of IDOL RTHS on selective media [1]: restored
chemical shift changes, RING domain of IDOL [2]: modest chemical shift changes for 3 amino acids
Kd [3]: 38.5 ± 34.8 µM
chemical shift changes, FERM domain of IDOL [4]: No changes
